Article PMC3563091 (Bioorganic & medicinal chemistry letters, 2012)

Molecular target: CMG2 (Capillary Morphogenesis Gene protein 2) (Homo sapiens, UniProt P58335, R40C)
Type: binding

CMG2 (Capillary Morphogenesis Gene protein 2), sequence (P58335 34-489 R40C limits assumed): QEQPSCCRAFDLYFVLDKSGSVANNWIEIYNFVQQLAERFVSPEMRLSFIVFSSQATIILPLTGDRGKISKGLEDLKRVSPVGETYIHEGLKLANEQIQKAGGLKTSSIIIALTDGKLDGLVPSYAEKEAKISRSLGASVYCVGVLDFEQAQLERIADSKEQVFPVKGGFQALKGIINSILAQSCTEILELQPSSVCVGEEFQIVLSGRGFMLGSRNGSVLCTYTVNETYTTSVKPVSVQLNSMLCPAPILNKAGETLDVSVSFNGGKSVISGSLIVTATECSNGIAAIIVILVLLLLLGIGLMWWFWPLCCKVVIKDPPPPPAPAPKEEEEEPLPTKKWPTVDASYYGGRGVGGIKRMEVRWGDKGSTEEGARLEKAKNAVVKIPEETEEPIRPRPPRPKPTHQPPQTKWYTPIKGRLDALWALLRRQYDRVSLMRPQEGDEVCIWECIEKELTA

7-O-methyl neolambertellin [compound 1] gave an IC50 of 500 nM.
